The source of these data is the Kinase Knowledgebase extract (Sharma et al. 2016).

Bounds are passed on as bounds.

The target in one test is PIK3CG (human) (UniProt P48736). The test is described as follows: Assessment of PIK3CG Kinase Activity.
The next test concerns the target PIK3CA (human) (UniProt P42336). The test is described as follows: Assessment of PIK3CA Kinase Activity.
The target in the next test is PIK3CB (Human) (UniProt P42338). Briefly: Assessment of PIK3CB Kinase Activity.
For the next test, the target named is PIK3CD (Human) (UniProt O00329). Briefly: Assessment of PIK3CD Kinase Activity.

As usually defined, the IC50 is the concentration that gives 50% inhibition. A lower IC50 goes with greater potency.

Chain of PIK3CB (Human) (P42338 whole entry, looked up): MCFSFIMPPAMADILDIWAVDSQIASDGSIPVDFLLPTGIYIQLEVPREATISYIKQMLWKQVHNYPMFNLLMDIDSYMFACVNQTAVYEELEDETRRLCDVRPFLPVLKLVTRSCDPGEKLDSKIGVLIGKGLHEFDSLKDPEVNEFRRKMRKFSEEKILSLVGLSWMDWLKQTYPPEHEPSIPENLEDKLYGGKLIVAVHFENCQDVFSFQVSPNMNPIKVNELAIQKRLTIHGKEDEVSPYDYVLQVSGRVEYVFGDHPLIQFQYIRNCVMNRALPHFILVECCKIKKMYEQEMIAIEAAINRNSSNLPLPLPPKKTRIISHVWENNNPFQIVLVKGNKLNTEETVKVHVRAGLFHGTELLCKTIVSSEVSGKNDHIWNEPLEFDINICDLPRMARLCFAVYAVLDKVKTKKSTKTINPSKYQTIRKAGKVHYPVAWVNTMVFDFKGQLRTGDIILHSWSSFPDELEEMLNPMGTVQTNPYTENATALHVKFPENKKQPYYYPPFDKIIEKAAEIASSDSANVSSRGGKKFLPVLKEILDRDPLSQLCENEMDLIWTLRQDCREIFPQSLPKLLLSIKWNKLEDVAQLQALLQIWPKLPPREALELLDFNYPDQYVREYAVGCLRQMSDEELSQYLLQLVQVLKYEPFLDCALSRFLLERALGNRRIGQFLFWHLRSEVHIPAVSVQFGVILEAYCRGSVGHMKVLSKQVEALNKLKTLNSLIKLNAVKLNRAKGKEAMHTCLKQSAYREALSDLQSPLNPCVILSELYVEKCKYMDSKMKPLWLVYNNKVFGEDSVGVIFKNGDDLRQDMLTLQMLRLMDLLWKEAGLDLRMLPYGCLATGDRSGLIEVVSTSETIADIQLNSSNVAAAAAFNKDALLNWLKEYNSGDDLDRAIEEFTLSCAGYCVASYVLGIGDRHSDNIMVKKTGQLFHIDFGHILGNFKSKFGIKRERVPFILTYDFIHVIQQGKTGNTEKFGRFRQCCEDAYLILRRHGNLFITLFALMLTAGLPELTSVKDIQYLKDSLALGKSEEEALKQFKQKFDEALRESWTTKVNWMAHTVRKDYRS
Chain of PIK3CG (human) (P48736 whole entry, looked up): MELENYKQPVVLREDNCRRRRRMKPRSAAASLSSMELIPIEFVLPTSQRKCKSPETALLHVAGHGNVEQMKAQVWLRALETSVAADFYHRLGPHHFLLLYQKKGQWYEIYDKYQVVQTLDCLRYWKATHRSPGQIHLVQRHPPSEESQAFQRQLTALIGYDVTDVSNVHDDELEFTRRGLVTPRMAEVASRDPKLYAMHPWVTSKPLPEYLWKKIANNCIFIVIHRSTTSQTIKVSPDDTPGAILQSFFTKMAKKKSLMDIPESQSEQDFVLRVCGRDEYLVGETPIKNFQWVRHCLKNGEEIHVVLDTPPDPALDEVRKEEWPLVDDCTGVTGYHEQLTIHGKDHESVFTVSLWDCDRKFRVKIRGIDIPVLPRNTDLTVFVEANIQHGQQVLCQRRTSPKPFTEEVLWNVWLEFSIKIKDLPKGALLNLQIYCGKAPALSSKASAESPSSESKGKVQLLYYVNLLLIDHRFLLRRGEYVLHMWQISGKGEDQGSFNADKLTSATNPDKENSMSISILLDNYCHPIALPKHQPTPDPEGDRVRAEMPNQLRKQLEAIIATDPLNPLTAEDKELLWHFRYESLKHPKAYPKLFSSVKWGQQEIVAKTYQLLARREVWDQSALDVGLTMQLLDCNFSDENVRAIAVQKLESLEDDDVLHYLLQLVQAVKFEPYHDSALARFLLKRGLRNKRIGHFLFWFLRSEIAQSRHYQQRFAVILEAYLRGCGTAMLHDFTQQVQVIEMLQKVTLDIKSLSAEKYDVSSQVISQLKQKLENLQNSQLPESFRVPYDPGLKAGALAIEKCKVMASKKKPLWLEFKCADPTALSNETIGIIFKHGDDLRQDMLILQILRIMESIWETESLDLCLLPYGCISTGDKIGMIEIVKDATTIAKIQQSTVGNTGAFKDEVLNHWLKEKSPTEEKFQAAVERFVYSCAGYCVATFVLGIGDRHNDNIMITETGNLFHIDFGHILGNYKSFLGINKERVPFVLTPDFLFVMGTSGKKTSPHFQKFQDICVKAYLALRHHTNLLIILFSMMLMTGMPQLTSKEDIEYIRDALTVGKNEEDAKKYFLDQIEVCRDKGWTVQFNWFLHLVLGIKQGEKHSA
Chain of PIK3CD (Human) (O00329 whole entry, looked up): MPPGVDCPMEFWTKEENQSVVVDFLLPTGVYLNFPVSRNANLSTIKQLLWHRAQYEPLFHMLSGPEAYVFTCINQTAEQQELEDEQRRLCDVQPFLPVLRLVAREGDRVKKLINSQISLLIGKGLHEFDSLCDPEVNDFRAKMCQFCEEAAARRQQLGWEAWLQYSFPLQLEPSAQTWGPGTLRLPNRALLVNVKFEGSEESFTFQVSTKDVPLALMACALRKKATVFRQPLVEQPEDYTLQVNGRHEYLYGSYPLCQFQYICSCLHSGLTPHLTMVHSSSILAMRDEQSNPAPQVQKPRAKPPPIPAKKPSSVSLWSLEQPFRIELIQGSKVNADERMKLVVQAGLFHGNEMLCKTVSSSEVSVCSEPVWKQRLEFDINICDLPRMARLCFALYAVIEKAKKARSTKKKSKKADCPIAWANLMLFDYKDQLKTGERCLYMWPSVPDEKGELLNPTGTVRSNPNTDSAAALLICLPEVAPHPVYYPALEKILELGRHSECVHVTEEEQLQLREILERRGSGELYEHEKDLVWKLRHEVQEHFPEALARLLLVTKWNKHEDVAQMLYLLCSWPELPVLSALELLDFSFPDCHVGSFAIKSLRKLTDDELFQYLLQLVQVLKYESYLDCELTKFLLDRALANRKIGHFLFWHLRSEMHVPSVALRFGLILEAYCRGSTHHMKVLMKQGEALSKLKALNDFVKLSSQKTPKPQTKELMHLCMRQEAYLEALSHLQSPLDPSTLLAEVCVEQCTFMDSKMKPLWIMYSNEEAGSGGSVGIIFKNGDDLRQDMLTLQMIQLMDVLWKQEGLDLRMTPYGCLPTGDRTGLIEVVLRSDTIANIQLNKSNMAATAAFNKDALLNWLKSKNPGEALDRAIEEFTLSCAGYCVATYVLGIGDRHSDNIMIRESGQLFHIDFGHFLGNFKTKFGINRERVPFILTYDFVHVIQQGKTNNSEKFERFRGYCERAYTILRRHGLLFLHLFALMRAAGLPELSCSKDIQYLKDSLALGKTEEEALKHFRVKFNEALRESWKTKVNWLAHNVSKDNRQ
Chain of PIK3CA (human) (P42336 whole entry, looked up): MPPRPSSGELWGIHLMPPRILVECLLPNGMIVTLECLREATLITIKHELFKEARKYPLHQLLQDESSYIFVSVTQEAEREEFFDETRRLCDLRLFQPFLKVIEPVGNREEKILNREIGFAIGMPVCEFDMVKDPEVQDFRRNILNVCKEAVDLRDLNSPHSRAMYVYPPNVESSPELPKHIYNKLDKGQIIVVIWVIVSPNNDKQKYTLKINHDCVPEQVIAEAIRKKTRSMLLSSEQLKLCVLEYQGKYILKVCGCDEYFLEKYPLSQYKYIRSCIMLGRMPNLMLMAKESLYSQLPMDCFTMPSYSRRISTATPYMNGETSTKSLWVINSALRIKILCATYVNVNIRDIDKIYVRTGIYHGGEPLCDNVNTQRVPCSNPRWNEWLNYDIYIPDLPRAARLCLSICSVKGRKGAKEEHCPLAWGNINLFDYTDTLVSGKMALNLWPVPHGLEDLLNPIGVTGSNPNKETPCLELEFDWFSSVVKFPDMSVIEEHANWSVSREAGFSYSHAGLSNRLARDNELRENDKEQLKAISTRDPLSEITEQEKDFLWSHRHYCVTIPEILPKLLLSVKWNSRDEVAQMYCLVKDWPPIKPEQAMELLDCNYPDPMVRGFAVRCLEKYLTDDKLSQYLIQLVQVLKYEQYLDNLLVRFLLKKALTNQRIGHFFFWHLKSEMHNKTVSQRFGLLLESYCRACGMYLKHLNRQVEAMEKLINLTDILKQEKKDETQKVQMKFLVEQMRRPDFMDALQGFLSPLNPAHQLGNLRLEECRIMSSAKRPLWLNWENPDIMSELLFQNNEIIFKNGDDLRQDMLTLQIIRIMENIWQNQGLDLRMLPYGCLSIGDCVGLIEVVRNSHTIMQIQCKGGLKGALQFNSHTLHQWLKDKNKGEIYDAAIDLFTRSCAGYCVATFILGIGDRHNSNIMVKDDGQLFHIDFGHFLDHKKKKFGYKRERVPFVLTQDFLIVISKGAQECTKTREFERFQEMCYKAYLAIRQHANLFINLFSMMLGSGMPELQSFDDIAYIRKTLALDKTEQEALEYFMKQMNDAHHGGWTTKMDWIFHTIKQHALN

`CCN(C)C(=O)c1cnc(N)nc1N[C@@H](C)c1cc2cccc(-c3ccnc(OC)c3)c2c(=O)n1-c1ccccc1`: the figures for the IC50 on PIK3CG (human), against PIK3CA (human) and against PIK3CB (Human) were 100 to 1000 nM, over 10000 nM and over 10000 nM, respectively.

As for `COc1cc(-c2cccc3cc([C@H](C)Nc4nc(N)ncc4C(=O)N4CCC4)n(-c4ccccc4)c(=O)c23)ccn1`, the IC50 at PIK3CG (human) is under 100 nM; on PIK3CA (human) it was over 10000 nM; at PIK3CB (Human), over 10000 nM.

For `C[C@H](Nc1nc(N)ncc1S(C)(=O)=O)c1cc2cccc(Cl)c2c(=O)n1-c1ccccc1`, the IC50 at PIK3CG (human) is 100 to 1000 nM; at PIK3CA (human), over 10000 nM; against PIK3CB (Human) it was over 10000 nM.

Regarding `C[C@H](Nc1nc(N)ncc1-c1ccccc1)c1cc2cccc(Cl)c2c(=O)n1-c1ccccc1`, the figures for the IC50 against PIK3CG (human), at PIK3CA (human) and on PIK3CB (Human) were 100 to 1000 nM, over 10000 nM and over 10000 nM, respectively.

Regarding `COc1cc(N[C@@H](C)c2cc3cccc(Cl)c3c(=O)n2-c2ccccc2)nc(N)n1`, the IC50 against PIK3CA (human) and against PIK3CB (Human) was over 10000 nM in each case.

Regarding `C[C@H](Nc1nc(N)ncc1NC(=O)c1ccccc1)c1cc2cccc(Cl)c2c(=O)n1-c1ccccc1`, the IC50 against PIK3CA (human) and on PIK3CB (Human) was over 10000 nM throughout.

As for `C[C@H](Nc1nc(Cl)ncc1[N+](=O)[O-])c1cc2cccc(Cl)c2c(=O)n1-c1ccccc1`, the IC50 at PIK3CD (Human) was 100 to 1000 nM; at PIK3CA (human), over 10000 nM; on PIK3CB (Human), over 10000 nM.

`COc1cc(-c2cccc3cc([C@H](C)Nc4nc(N)ncc4C(=O)N4CCOCC4)n(-c4ccccc4)c(=O)c23)ccn1`: the IC50 against PIK3CA (human) and against PIK3CB (Human) was over 10000 nM throughout.

For the molecule `COc1cnc(-c2cccc3cc([C@H](C)Nc4nc(N)ncc4C#N)n(-c4ccccc4)c(=O)c23)nc1`, the concentration for half-maximal inhibition (IC50) is 100 to 1000 nM at PIK3CG (human), over 10000 nM on PIK3CA (human) and over 10000 nM at PIK3CB (Human).

As for `C[C@H](Nc1nc(N)ncc1C(=O)N1CC(F)(F)C1)c1cc2cccc(Cl)c2c(=O)n1-c1ccccc1`, the IC50 against PIK3CA (human) and against PIK3CB (Human) was over 10000 nM throughout.

On to `C[C@H](Nc1nc(N)ncc1C#N)c1cc2cccc(-c3cccc(S(C)(=O)=O)c3)c2c(=O)n1-c1ccccc1`, for which the IC50 against PIK3CD (Human) is under 100 nM; at PIK3CG (human) it was under 100 nM; against PIK3CB (Human) it was over 10000 nM.

For `CC(C)n1c([C@H](C)Nc2nc(N)ncc2C#N)cc2cccc(Cl)c2c1=O`, the concentration for half-maximal inhibition (IC50) at PIK3CD (Human), against PIK3CG (human) and against PIK3CB (Human) was under 100 nM each time.

As to `CNc1cc(-c2cccc3cc([C@H](C)Nc4nc(N)ncc4C#N)n(-c4ccccc4)c(=O)c23)ccn1`, the IC50 was under 100 nM against PIK3CD (Human), under 100 nM against PIK3CG (human) and over 10000 nM at PIK3CB (Human).

In the case of `COc1ccc(-c2cccc3cc([C@H](C)Nc4nc(N)ncc4C#N)n(-c4ccccc4)c(=O)c23)nc1`, the IC50 was under 100 nM at PIK3CD (Human), under 100 nM against PIK3CG (human) and over 10000 nM against PIK3CB (Human).

Regarding `Cc1csc(-c2cnc(N)nc2N[C@@H](C)c2cc3cccc(Cl)c3c(=O)n2-c2ccccc2)n1`, the IC50 against PIK3CD (Human) was under 100 nM; against PIK3CG (human), under 100 nM; against PIK3CB (Human) it was 100 to 1000 nM.

In the case of `COc1cc(-c2cccc3cc([C@H](C)Nc4nc(N)ncc4C(=O)N(C)CCO)n(-c4ccccc4)c(=O)c23)ccn1`, the IC50 on PIK3CA (human) and against PIK3CB (Human) was over 10000 nM each time.

As for `COc1cc(-c2cccc3cc([C@H](C)Nc4nc(N)ncc4[N+](=O)[O-])n(-c4ccccc4)c(=O)c23)ccn1`, the values for the IC50 on PIK3CD (Human), at PIK3CG (human) and at PIK3CB (Human) were under 100 nM, under 100 nM and over 10000 nM, respectively.

Take `C#Cc1cnc(N)nc1N[C@@H](C)c1cc2cccc(Cl)c2c(=O)n1-c1ccccc1`: the figures for the IC50 against PIK3CD (Human), against PIK3CG (human) and on PIK3CB (Human) were under 100 nM, under 100 nM and 100 to 1000 nM, respectively.

With `C[C@H](Nc1nc(N)ncc1C#N)c1cc2cccc(-c3ccn(C)c(=O)c3)c2c(=O)n1-c1ccccc1`, the IC50 at PIK3CA (human) and against PIK3CB (Human) was over 10000 nM in each case.

`C[C@H](Nc1cc(N)ncn1)c1cc2cccc(Cl)c2c(=O)n1-c1ccccc1`: the values for the IC50 at PIK3CD (Human), on PIK3CA (human) and at PIK3CB (Human) were 100 to 1000 nM, over 10000 nM and over 10000 nM, respectively.

As for `CC(=O)Nc1cnc(N)nc1N[C@@H](C)c1cc2cccc(Cl)c2c(=O)n1-c1ccccc1`, the IC50 at PIK3CD (Human), against PIK3CA (human) and against PIK3CB (Human) was over 10000 nM in each case.

With `C[C@H](Nc1nc(N)ncc1-c1cncs1)c1cc2cccc(Cl)c2c(=O)n1-c1ccccc1`, the IC50 against PIK3CD (Human) was under 100 nM; against PIK3CG (human), under 100 nM; at PIK3CB (Human), 100 to 1000 nM.

Take `CCOc1nc(-c2cnc(N)nc2N[C@@H](C)c2cc3cccc(Cl)c3c(=O)n2-c2ccccc2)cs1`: the IC50 at PIK3CD (Human), against PIK3CG (human) and against PIK3CB (Human) was under 100 nM each time.

As to `C[C@H](Nc1nc(N)ncc1C#N)c1cc2cccc(Cl)c2c(=O)n1-c1cscn1`, the half-inhibitory concentration (IC50) against PIK3CD (Human), against PIK3CG (human) and against PIK3CB (Human) was under 100 nM in each case.

Regarding `C[C@H](Nc1nc(N)ncc1C#N)c1cc2cccc(Cl)c2c(=O)n1-c1ccc(F)cc1F`, the IC50 was under 100 nM against PIK3CD (Human), under 100 nM against PIK3CG (human) and 100 to 1000 nM at PIK3CB (Human).

With `C[C@H](Nc1nc(N)ncc1C#N)c1cc2cccc(Cl)c2c(=O)n1-c1ccon1`, the values for the IC50 against PIK3CD (Human), at PIK3CG (human) and on PIK3CB (Human) were under 100 nM, under 100 nM and 100 to 1000 nM, respectively.

Turning to `C[C@H](Nc1nc(N)ncc1C(=O)N1CCC1)c1cc2cccc(Cl)c2c(=O)n1-c1ccccc1`, the IC50 is under 100 nM against PIK3CG (human), over 10000 nM against PIK3CA (human) and over 10000 nM on PIK3CB (Human).

Consider `C[C@H](Nc1cc(Cl)ncn1)c1cc2cccc(Cl)c2c(=O)n1-c1ccccc1`, for which the IC50 on PIK3CA (human) and at PIK3CB (Human) was over 10000 nM each time.

With `CCOc1ncc(-c2cnc(N)nc2N[C@@H](C)c2cc3cccc(Cl)c3c(=O)n2-c2ccccc2)s1`, the IC50 was under 100 nM at PIK3CD (Human), under 100 nM against PIK3CG (human) and 100 to 1000 nM at PIK3CB (Human).

Take `Cc1ncc(-c2cccc3cc([C@H](C)Nc4nc(N)ncc4C#N)n(-c4ccccc4)c(=O)c23)cn1`: the IC50 at PIK3CD (Human) was under 100 nM; on PIK3CG (human) it was under 100 nM; against PIK3CB (Human), over 10000 nM.

Regarding `COc1cccc2cc([C@H](C)Nc3nc(N)ncc3C#N)n(-c3ccccc3)c(=O)c12`, the IC50 against PIK3CG (human) is 100 to 1000 nM; against PIK3CA (human) it was over 10000 nM; against PIK3CB (Human), over 10000 nM.

As to `COc1cc(-c2cccc3cc([C@H](C)Nc4nc(N)ncc4C(=O)NC4CC4)n(-c4ccccc4)c(=O)c23)ccn1`, the values for the IC50 against PIK3CD (Human), against PIK3CA (human) and against PIK3CB (Human) were under 100 nM, over 10000 nM and over 10000 nM, respectively.

With `C[C@H](Nc1nc(N)ncc1C#N)c1cc2cccc(Cl)c2c(=O)n1-c1ccccc1F`, the results for the IC50 on PIK3CD (Human), on PIK3CG (human) and at PIK3CB (Human) were under 100 nM, under 100 nM and 100 to 1000 nM, respectively.

Consider `Cc1cc(-c2cccc3cc([C@H](C)Nc4nc(N)ncc4C#N)n(-c4ccccc4)c(=O)c23)cn(C)c1=O`, for which the values for the IC50 on PIK3CD (Human), on PIK3CG (human) and at PIK3CB (Human) were under 100 nM, under 100 nM and over 10000 nM, respectively.

`C[C@H](Nc1nc(N)ncc1C#N)c1cc2cccc(-c3ccc(O)nc3)c2c(=O)n1-c1ccccc1`: the values for the IC50 against PIK3CD (Human), on PIK3CG (human) and on PIK3CB (Human) were under 100 nM, under 100 nM and over 10000 nM, respectively.

Regarding `C[C@H](Nc1nc(N)ncc1C#N)c1cc2cccc(Cl)c2c(=O)n1-c1ccc(Cl)cc1`, the IC50 on PIK3CD (Human) is under 100 nM; at PIK3CG (human), under 100 nM; against PIK3CB (Human), 100 to 1000 nM.
